Like-named read-outs stand apart in the source and are kept apart here.
Columns and labels:
Hep-G2 (HCC) = assay: MTS cell viability assay, 72 h; format: cell-based, human; conditions: for IC50: Table S2, read-out: Anti-proliferation IC50 Hep-G2; for Hep-G2-selectivity (VERO/Hep-G2): ratio of VERO to Hep-G2 cytotoxicity
Source text: (§1) We then screened STR-V-53 and all the synthesized glycosylated HDACi for their effects on the viability of three cell lines: A549 (lung adenocarcinoma), Hep-G2 (HCC), and VERO (a normal kidney epithelial cell). We used SORA and STR-V-48, a previously disclosed nonglycosylated compound, as controls.[25] […] Additionally, compound STR-V-167, the peracetylated analog of STR-V-53, largely retained the Hep-G2 selectivity of STR-V-53 (Table S2). Subsequently, we evaluated the effects of STR-V-53 on cell proliferation using a panel of human HCC cell lines (Huh-7, SK-Hep-1, and Hep3B) as well as Kupffer cells (liver resident macrophages) by MTS assay. We observed that STR-V-53 is 7- to 16-fold more cytotoxic against these HCC cell lines relative to the Kupffer cells (Figure 1g). […] Based on their weak HDAC and cell proliferation inhibition activities, we de-emphasized further evaluation of the class III compounds.
(§2) 10-017-CV), supplemented with 10% fetal bovine serum (FBS) (Corning, 35-010-CV). Hep-G2 cells were cultured in phenol red-free Minimum Essential Medium (MEM) (Corning, 17-305-CV), supplemented with 10% fetal bovine serum (FBS). SK-Hep-1 in ATCC-formulated EMEM (ATCC® 30–2003™); Huh-7 in DMEM (containing 4 mM L-glutamine and 1 g/L glucose) with […]
(§3) Kupffer Cell Media (Sekisui XenoTech, LLC, Cat. #K8700). Cells were seeded into a 96-well plate (2000 counts/100uL) for 24 h prior to treatment and then treated with various drug concentrations for 72 h. All drugs were dissolved in media with DMSO concentration maintained at 1%. The effect of compounds on cell viability was measured using the MTS assay (CellTiter 96 Aqueous One Solution and CellTiter 96 Non-Radioactive Cell Proliferation Assays, Promega, Madison, WI) as described by the manufacturer. IC50s were determined using Prism GraphPad 8. […]

[1] = test system: A549 (lung adenocarcinoma); assay: MTS cell viability assay, 72 h; format: cell-based; conditions: Table S2, read-out: Anti-proliferation IC50 A549
Source text: as §1, §2, §3

[2] = test system: VERO (a normal kidney epithelial cell); assay: MTS cell viability assay, 72 h; format: cell-based; conditions: Table S2, read-out: Anti-proliferation IC50 VERO
Source text: as §1, §2, §3

HDAC1 = HDAC1 (Homo sapiens, UniProt Q13547); assay: HDAC isoform inhibition (BPS Bioscience); conditions: read-out: HDAC1 IC50; Table S1
Sequence of HDAC1 (Q13547 whole entry, canonical isoform): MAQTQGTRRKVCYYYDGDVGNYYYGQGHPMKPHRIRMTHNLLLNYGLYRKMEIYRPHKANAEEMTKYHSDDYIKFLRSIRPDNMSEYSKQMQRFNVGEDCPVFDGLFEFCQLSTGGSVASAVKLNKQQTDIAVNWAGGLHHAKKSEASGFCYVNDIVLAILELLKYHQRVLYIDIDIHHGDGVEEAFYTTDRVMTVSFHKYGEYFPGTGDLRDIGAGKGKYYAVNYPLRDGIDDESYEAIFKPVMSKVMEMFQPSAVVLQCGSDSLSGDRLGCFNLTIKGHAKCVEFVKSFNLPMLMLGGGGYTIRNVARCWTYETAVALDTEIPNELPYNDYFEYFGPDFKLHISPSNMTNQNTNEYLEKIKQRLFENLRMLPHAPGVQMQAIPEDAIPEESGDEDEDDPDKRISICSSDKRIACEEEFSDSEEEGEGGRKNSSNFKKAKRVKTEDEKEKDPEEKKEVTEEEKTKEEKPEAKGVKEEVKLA

HDAC8 = target: T1, HDAC8 (Homo sapiens, UniProt Q9BY41); assay: HDAC isoform inhibition (BPS Bioscience); conditions: read-out: HDAC8 IC50; Table S1
T1 sequence (Q9BY41 1-377): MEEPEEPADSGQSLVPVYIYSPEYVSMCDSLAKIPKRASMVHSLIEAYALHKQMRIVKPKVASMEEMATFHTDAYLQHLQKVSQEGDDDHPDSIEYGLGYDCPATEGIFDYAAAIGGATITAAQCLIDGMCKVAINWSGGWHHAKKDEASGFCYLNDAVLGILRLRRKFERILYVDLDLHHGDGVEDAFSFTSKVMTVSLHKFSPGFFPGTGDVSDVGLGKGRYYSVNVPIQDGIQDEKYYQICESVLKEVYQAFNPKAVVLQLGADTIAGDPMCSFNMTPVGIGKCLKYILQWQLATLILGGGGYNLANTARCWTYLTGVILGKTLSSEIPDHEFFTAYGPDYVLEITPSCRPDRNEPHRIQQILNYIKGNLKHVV

HDAC2 = HDAC2 (Homo sapiens, UniProt Q92769); assay: HDAC isoform inhibition (BPS Bioscience); conditions: read-out: HDAC2 IC50; Table S1
Sequence of HDAC2 (Q92769 whole entry, canonical isoform): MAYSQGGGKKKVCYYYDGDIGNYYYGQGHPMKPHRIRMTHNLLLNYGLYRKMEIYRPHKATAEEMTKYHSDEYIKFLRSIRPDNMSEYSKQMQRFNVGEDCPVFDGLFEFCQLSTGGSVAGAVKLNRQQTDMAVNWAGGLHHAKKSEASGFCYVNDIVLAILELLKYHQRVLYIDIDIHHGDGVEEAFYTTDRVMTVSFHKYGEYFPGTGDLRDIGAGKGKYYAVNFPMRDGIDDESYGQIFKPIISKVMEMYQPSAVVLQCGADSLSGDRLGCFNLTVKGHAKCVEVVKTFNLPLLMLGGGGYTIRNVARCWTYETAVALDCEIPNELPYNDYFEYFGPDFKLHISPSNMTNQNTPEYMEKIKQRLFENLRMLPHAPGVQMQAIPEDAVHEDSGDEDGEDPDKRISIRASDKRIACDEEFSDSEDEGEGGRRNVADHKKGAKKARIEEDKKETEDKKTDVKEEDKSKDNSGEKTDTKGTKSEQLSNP

HDAC6 = target: T2, HDAC6 (Homo sapiens, UniProt Q9UBN7); assay: HDAC isoform inhibition (BPS Bioscience); conditions: read-out: HDAC6 IC50; Table S1
T2 sequence (Q9UBN7 1-1215): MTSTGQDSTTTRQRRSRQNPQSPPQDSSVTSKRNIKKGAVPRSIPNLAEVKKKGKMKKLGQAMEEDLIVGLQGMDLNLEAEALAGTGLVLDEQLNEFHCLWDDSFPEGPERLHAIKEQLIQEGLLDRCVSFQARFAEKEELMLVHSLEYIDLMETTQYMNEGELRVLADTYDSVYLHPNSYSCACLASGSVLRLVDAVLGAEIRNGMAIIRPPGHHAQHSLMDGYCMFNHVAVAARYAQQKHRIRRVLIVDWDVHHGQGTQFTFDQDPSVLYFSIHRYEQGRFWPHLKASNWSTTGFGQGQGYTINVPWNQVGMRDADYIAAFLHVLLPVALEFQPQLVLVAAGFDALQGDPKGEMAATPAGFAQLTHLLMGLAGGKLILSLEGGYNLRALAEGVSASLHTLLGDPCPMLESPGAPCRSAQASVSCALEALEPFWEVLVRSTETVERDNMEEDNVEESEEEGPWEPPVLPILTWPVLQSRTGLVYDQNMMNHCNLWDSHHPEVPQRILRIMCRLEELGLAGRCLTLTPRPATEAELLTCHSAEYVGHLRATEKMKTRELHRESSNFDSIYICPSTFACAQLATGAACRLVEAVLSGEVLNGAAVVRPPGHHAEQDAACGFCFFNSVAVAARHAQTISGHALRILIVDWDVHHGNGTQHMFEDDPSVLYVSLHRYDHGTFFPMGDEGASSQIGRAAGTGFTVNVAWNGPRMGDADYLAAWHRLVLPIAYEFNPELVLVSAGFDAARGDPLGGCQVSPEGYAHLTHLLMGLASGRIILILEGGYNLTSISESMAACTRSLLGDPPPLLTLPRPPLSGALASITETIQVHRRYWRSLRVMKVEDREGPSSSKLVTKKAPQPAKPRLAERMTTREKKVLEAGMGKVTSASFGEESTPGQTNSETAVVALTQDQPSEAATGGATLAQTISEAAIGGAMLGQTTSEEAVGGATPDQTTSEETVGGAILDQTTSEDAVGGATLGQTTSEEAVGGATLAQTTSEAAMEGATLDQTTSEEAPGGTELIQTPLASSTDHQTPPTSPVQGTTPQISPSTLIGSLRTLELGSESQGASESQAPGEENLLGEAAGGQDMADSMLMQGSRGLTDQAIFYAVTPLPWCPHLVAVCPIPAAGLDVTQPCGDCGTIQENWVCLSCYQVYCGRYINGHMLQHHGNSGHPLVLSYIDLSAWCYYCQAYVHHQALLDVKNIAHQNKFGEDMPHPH

HCC = test system: HCC; set-up: method as in PMID 22915658; conditions: HCC patients on belinostat treatment, NCT00321594; cited from earlier work

Row | SMILES | IC50 (Hep-G2 (HCC); Homo sapiens, HepG2) | IC50 ([1]; Homo sapiens, A549) | IC50 (Hep-G2 (HCC)) | IC50 (HDAC1) | IC50 (HDAC8) | IC50 (HDAC2) | IC50 (HDAC6) | IC50 [1] | IC50 ([2]; Chlorocebus sabaeus, Vero) | Hep-G2-selectivity (VERO/Hep-G2) (Hep-G2 (HCC)) | IC50 [2] | Median overall survival (OS) (HCC) | Median progression-free survival (PFS) (HCC)
1 | COc1ccc2cc(-c3cn(CCCCCCC(=O)NO)nn3)ccc2c1 [STR-V-48, N-hydroxy-7-(4-(6-methoxynaphthalen-2-yl)-1H-1,2,3-triazol-1-yl)heptanamide, reference compound] | 400 ± 40 nM | 1400 ± 200 nM | – | – | – | – | – | – | 200 ± 50 nM | – | – | – | –
2 | CNC(=O)c1cc(Oc2ccc(NC(=O)Nc3ccc(Cl)c(C(F)(F)F)c3)cc2)ccn1 [SORA, sorafenib, reference compound] | 3700 ± 400 nM | 18100 ± 2900 nM | – | – | – | – | – | – | 12200 ± 100 nM | about three times more cytotoxic | – | – | –
3 | O=C(/C=C/c1cccc(S(=O)(=O)Nc2ccccc2)c1)NO [belinostat] | – | – | – | – | – | – | – | – | – | – | – | 6.60 months | 2.64 months
4 | O=C(CCCCCCn1cc(-c2ccc3cc(O[C@@H]4O[C@H](CO)[C@@H](O)[C@H](O)[C@H]4O)ccc3c2)nn1)NO [STR-II-36] | – | – | 7500 ± 800 nM | 3.28 nM | 319 nM | 10.4 nM | 0.72 nM | 20100 ± 1100 nM | – | – | 33600 ± 5500 nM | – | –

Further lines, with some results ahead:

Row | IC50 (Hep-G2 (HCC); Homo sapiens, HepG2) | IC50 ([1]; Homo sapiens, A549) | IC50 (Hep-G2 (HCC)) | IC50 (HDAC1) | IC50 (HDAC8) | IC50 (HDAC2) | IC50 (HDAC6) | IC50 [1] | SMILES | IC50 ([2]; Chlorocebus sabaeus, Vero) | Hep-G2-selectivity (VERO/Hep-G2) (Hep-G2 (HCC)) | IC50 [2] | Median overall survival (OS) (HCC) | Median progression-free survival (PFS) (HCC)
5 | – | – | 9600 ± 3400 nM | 10.3 nM | 806 nM | 27.5 nM | 5.22 nM | 33700 ± 1800 nM | CC(=O)O[C@H]1[C@H](Oc2ccc(-c3cn(CCCCCCC(=O)NO)nn3)cc2)O[C@H](C)C[C@@H]1N(C)C [STR-V-165] | – | 8 fold | 76400 nM | – | –
6 | – | – | 10100 ± 1200 nM | 31.8 nM | 311 nM | 66.4 nM | 2.61 nM | > 100000 nM | CC(=O)OCC1OC(Oc2ccc(-c3cn(CCCCCCC(=O)NO)nn3)cc2)C(OC(C)=O)C(OC(C)=O)C1OC(C)=O (stereo not shown) [STR-V-167] | – | – | > 100000 nM | – | –
7 | – | – | 8000 ± 900 nM | 1.43 nM | 271 nM | 4.2 nM | 1.05 nM | 64700 ± 7000 nM | CC(=O)OCC1OC(Oc2ccc(-c3cn(CCCCCCC(=O)NO)nn3)cc2)C(OC(C)=O)C(OC(C)=O)C1OC(C)=O (stereo not shown) [STR-V-176] | – | 10 fold | 77400 ± 5600 nM | – | –
8 | – | – | 7400 ± 900 nM | 2.2 nM | 718 nM | 13.2 nM | 1.65 nM | 39600 ± 600 nM | CC(=O)OCC1OC(Oc2ccc3cc(-c4cn(CCCCCCC(=O)NO)nn4)ccc3c2)C(OC(C)=O)C(OC(C)=O)C1OC(C)=O (stereo not shown) [STR-V-177] | – | – | 19200 ± 900 nM | – | –

From publication PMC11475281, “A Novel Liver Cancer-Selective Histone Deacetylase Inhibitor Is Effective against Hepatocellular Carcinoma and Induces Durable Responses with Immunotherapy” (ACS Pharmacology & Translational Science, 2024)
